Measurements from patent US20230310629A1, “BISPECIFIC ANTIBODY-DRUG CONJUGATES TARGETING EGFR AND MUC1 AND USES THEREOF” (Merck Patent GmbH, priority 2020, published 2023).

Tests used:
[1] = tested on: NCI-H292 cells; test: cells; assay type: cell-based; details: Homo sapiens
Method: (§1) NSCLC cells NCI-H292 (EGFR wild type (wt)), HCC827 (EGFR del E746-A750), and NCI-H1975 (EGFR L858R/T790M) were all purchased from ATCC. NCI-H292 and NCI-H1975 were cultured in RPMI1640 media with stable L-glutamine (Millipore® Sigma), 10% FBS (Millipore® Sigma) and 1 mM sodium pyruvate (Gibco®, Thermo Fisher Scientific®, or Millipore® Sigma). HCC827 cells were cultured in RPMI1640 media with stable 2 mM L-glutamine, 2.5 g/L D-(+)-glucose solution (Millipore® Sigma), 10 mM HEPES (Millipore® Sigma), 10% FBS, and 1 mM sodium pyruvate (Gibco®, Thermo Fisher Scientific®, or Millipore® Sigma).
(§2) For cytotoxicity testing, cell monolayers were washed once with Gibco® D-PBS (Thermo Fisher Scientific®) and detached from the cell culture flask using Accutase® (Millipore® Sigma). Viable cells were counted with the automated cell counter LUNA-FL™ (Logos Biosystems) using 0.4% Gibco® trypan blue solution (Thermo Fisher Scientific®). A total of 625 cells (NCI-H292), 1250 cells (NCI-H1975) or 3000 cells (HCC827) were plated in 90 μl cell culture medium per well of a 96-well black/clear flat bottom TC-treated imaging microplate (Corning®) and cultured overnight. A ten-fold starting concentration of ADCs or compounds and a respective serial dilution (1:4) were prepared in cell culture medium briefly before use. Wells were supplied with 10 μl ADC or compound solution. Treatment was performed in technical triplicates. […] Untreated control cells for ADCs or EGFR tyrosine kinase inhibitors (TKIs) received a corresponding amount of dilution media or dimethylsulfoxide (DMSO; Millipore Sigma), respectively. For subsequent cell viability measurement, 100 μl Cell Titer-Glo® reagent (Promega™ Corp, Madison, WI, USA) was pipetted in each well, and plates were further processed according the manufacturer's instructions.

[2] = tested on: NCI-H1975 cells; test: cells; assay type: cell-based; details: Homo sapiens
Method: as §1, §2

## C=CC(=O)Nc1cc(Nc2nccc(-c3cn(C)c4ccccc34)n2)c(OC)cc1N(C)CCN(C)C [Molecule 15, osimertinib]
[1]; NCI-H292, […], read-out: Geomean IC50
  IC50: 0.57 µM
[1]; NCI-H292, read-out: geomean span (% efficacy)
  Emax: […]
[2]; NCI-H1975, […], read-out: Geomean IC50
  IC50: […]
[2]; NCI-H1975, read-out: geomean span (% efficacy)
  Emax: […]
